Consider 20 compounds from patent US9156840B2, “D2 antagonists, methods of synthesis and methods of use” (ALTOS THERAPEUTICS, LLC, priority 2010, dated 2015).

Each structure is given as a SMILES string. Where a name gives a salt, the structure may show the parent alone.

T1 sequence (P14416 whole entry): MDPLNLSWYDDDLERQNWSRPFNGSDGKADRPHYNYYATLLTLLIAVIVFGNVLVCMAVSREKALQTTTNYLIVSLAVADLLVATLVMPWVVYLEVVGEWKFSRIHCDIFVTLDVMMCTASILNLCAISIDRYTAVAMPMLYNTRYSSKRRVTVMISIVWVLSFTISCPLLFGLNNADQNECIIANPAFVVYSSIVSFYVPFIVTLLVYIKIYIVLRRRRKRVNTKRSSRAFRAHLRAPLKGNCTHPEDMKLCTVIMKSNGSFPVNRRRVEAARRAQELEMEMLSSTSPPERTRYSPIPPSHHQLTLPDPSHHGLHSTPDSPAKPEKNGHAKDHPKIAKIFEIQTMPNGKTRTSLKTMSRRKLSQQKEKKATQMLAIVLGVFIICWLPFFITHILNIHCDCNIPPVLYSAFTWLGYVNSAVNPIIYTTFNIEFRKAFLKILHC

The assay has as its target T1, human D2 receptor (Homo sapiens, UniProt P14416).
T1 construct: expressed in transfected cells; cDNA from Origene clones TC308892 and SC123573
The experiment in a line: D2 receptor radioligand binding assay (membranes of HEK-293 cells expressing human D2 receptor). The note with it: radioligand displacement, HEK293 membranes, 37° C. for 120 minutes; read-out: Affinity Score (IC50 values for D2 on a scale of 1 through 5). On the procedure:
Affinity for the dopamine D2 receptor was tested in vitro, and the following describes the construction of cell lines expressing human D2 receptor, as well as the binding assays themselves.
Establishment of Stable Cell Lines Expressing Either the Cloned Human D2S Receptor or the Cloned Human D2L Receptor.
The human D2 receptor exists in two isoforms: the short form (D2S) and the long form (D2L). The two isoforms are generated from the D2 gene by alternative splicing and the D2L isoform differs from the D2S isoform by the addition of 29 amino acids in the third intracellular loop of its protein structure.
To establish HEK-293 cell lines stably expressing either the human D2S or the human D2L, the human dopamine D2S receptor (Genebank Accession Number NM_016574) and human dopamine D2L receptor (Genebank Accession Number BC021195) were amplified by PCR from Origene cDNA clones TC308892 and SC123573 (respectively) using the following primers: 5-[…]-3 (SEQ ID NO: 1) sense and 5-[…]-3 (SEQ ID NO: 2) antisense. The resulting PCR products were respectively cloned into pENTR-D-TOPO (Invitrogen), sequenced and then transferred into the pCDNA3.2-DEST (Invitrogen) using the LR-clonasc gateway reaction (Invitrogen) and sequenced again to verify the genes sequence.
HEK293 cells were maintained in Eagles Minimum Essential Medium (MEM) supplemented with 0.292 g/L L-glutamine and 10% (v/v) fetal calf serum at 37° C. in a 5% CO2 humidified atmosphere. Cells were grown to 60-80% confluency in 10 cm dishes before transfection. Transfection of the D2S and D2L containing pcDNA3.2-DEST into HEK-293 cells were performed using Lipofectamine 2000 (Invitrogen). Transfected cells were seeded and diluted 2 days after transfection and maintained in culture medium supplemented with 500 μg/mL G418. The HEK-293 cell line expressing the huD2S (R2D2S) and the huD2L (R2D2L) were maintained in culture medium supplemented with 500 μg/mL G418.
D2 Receptor Binding Assays
HEK293 cells were in Eagles Minimum Essential Medium (MEM) supplemented with 10% FBS, 0.292 g/liter L-glutamine, 10^5 units/liter penicillin, 100 mg/liter streptomycin and […] Geneticin at 37° C. in a 5% CO2 humidified atmosphere. Cells were grown to 80-90% confluence and harvested with cell stripper (Cellgro #25-056-CI). Cells were then washed with PBS (2×). Cells were either pelleted and frozen at −80° C. or membranes were prepared immediately.
Cells from pellet were resuspended in homogenization buffer (15 mM Tris*HCl, 2 mM MgCl2*6H2O, 0.3 mM EDTA, 1 mM EGTA pH 7.4 @ 4° C.). Cells were then homogenized using a Polytron (PT 1200) homogenizer at setting 6 for 10 seconds. Crude membranes were pelleted at 39, 412 g for 15 min, at 4° C. (2×) in a Sorval RC6 plus centrifuge. Membranes were finally resuspended in resuspension buffer (50 mM Tris*HCl, 120 mM NaCl, 10 mM MgCl2*6H2O, 1 mM EDTA pH 7.4 @ 4° C.) and sonicated (Fisher Sonic Dismembrator) at setting 5 for 10 seconds.
The radioligand binding assays were conducted in microtiter plates (Costar #3961) with a final volume of 1.0 mL.
The membranes were thawed at room temperature, briefly homogenized using a sonicator, diluted in assay buffer and kept on wet ice until being added to the assay plate. Membranes were diluted to a final target tissue concentration of 10 μg protein per well. The specific binding should be greater than 80% with less than 10% total radioligand bound to minimize ligand depletion errors.
First compound of the invention (50 μL) or assay buffer (50 mM Tris*HCl, 120 mM NaCl, 5 mM MgCl2*6H2O, 1 mM EDTA, 5 mM KCl pH 7.4 @37° C. plus 0.025% BSA), buffer (700 μL) and then membrane (200 μL) were added to the deep well assay plate, which was then shaken for 10 minutes. Finally, radioligand (50 μL) was added.
The assay plates were incubated at 37° C. for 120 minutes.
The assay plate were filtered over 0.3% PEI pretreated glass fiber filtermats (GF/C) using a Packard Filtermate cell harvester. […]
As to `CC1(C)C(=O)N(CCCN2CCC3(CC2)C(=O)N(Cc2ccc(C(=O)O)cc2)CN3c2ccccc2)c2ccccc21` [Compound 171, 4-((8-(3-(3,3-dimethyl-2-oxoindolin-1-yl)propyl)-4-oxo-1-phenyl-1,3,8-triazaspiro[4.5]decan-3-yl)methyl)benzoic acid, hydrochloride], the IC50 (usually the concentration needed to halve the response being measured) was below 10 nM.
Under `O=C(OCCN1CCOCC1)c1cccc(CN2CN(c3ccccc3)C3(CCN(CCCn4c(=O)[nH]c5ccccc54)CC3)C2=O)c1` [Compound 25, 2-Morpholinoethyl 3-((4-oxo-8-(3-(2-oxo-2,3-dihydro-1H-benzo[d]imidazol-1-yl)propyl)-1-phenyl-1,3,8-triazaspiro[4.5]decan-3-yl)methyl)benzoate] stands below 10 nM.
Turning to `CS(=O)(=O)Nc1ccc(CN2CN(c3ccccc3)C3(CCN(CCCC(=O)c4ccccc4)CC3)C2=O)cc1` [Compound 186, N-(4-((4-oxo-8-(4-oxo-4-phenylbutyl)-1-phenyl-1,3,8-triazaspiro[4.5]decan-3-yl)methyl)phenyl)methanesulfonamide], the IC50 was below 10 nM.
`O=C(O)c1ccccc1CN1CN(c2ccccc2)C2(CCN(CCCn3c(=O)n(C4CC4)c4ccccc43)CC2)C1=O` [Compound 155, 2-((8-(3-(3-cyclopropyl-2-oxo-2,3-dihydro-1H-benzo[d]imidazol-1-yl)propyl)-4-oxo-1-phenyl-1,3,8-triazaspiro[4.5]decan-3-yl)methyl)benzoic acid]: the IC50 is below 10 nM.
The same measure for `CN1CCN(C(=O)COC(=O)c2cccc(CN3CN(c4ccccc4)C4(CCN(CCCn5c(=O)[nH]c6ccccc65)CC4)C3=O)c2)CC1` [Compound 35, 2-(4-Methylpiperazin-1-yl)-2-oxoethyl 3-((4-oxo-8-(3-(2-oxo-2,3-dihydro-1H-benzo[d]imidazol-1-yl)propyl)-1-phenyl-1,3,8-triazaspiro[4.5]decan-3-yl)methyl)benzoate]: below 10 nM; for `O=C(O)c1cccc(CN2CN(c3ccccc3)C3(CCN(CCCn4c(=O)n(C5CC5)c5ccccc54)CC3)C2=O)c1` [Compound 120, 3-((8-(3-(3-Cyclopropyl-2-oxo-2,3-dihydro-1H-benzo[d]imidazol-1-yl)propyl)-4-oxo-1-phenyl-1,3,8-triazaspiro[4.5]decan-3-yl)methyl)benzoic acid]: below 10 nM; for `O=C(O)CCCCCN1CN(c2ccccc2)C2(CCN(CCCn3c(=O)[nH]c4ccccc43)CC2)C1=O` [Compound 22, 6-(4-Oxo-8-(3-(2-oxo-2,3-dihydro-1H-benzo[d]imidazol-1-yl)propyl)-1-phenyl-1,3,8-triazaspiro[4.5]decan-3-yl)hexanoic acid]: below 10 nM.
Under `O=C(O)[C@H](c1ccccc1)N1CN(c2ccccc2)C2(CCN(CCCn3c(=O)[nH]c4ccccc43)CC2)C1=O` [Compound 40, (S)-2-(4-oxo-8-(3-(2-oxo-2,3-dihydro-1H-benzo[d]imidazol-1-yl)propyl)-1-phenyl-1,3,8-triazaspiro[4.5]decan-3-yl)-2-phenylacetic acid] stands below 10 nM; under `CC1(F)C(=O)N(CCCN2CCC3(CC2)C(=O)N(Cc2cccc(C(=O)O)c2)CN3c2ccc(F)cc2)c2ccccc21` (centres unmarked) [Compound 164, 3-((8-(3-(3-Fluoro-3-methyl-2-oxoindolin-1-yl)propyl)-1-(4-fluorophenyl)-4-oxo-1,3,8-triazaspiro[4.5]decan-3-yl)methyl)benzoic acid], below 10 nM; under `O=C(CCCN1CCC2(CC1)C(=O)N(Cc1ccccc1C(=O)O)CN2C1CCCCC1)c1ccccc1` [Compound 218, 2-((1-Cyclohexyl-4-oxo-8-(4-oxo-4-phenylbutyl)-1,3,8-triazaspiro[4.5]decan-3-yl)methyl)benzoic acid, hydrochloride], below 10 nM.
Under `O=C(O)c1ccccc1CN1CN(c2ccccc2)C2(CCN(CCCn3c(=O)[nH]c4ccccc43)CC2)C1=O` [Compound 19, 2-((4-Oxo-8-(3-(2-oxo-2,3-dihydro-1H-benzo[d]imidazol-1-yl)propyl)-1-phenyl-1,3,8-triazaspiro[4.5]decan-3-yl)methyl)benzoic acid] stands below 10 nM; under `O=C(O)CC(c1ccccc1)N1CN(c2ccccc2)C2(CCN(CCCn3c(=O)[nH]c4ccccc43)CC2)C1=O` (centres unmarked) [Compound 70, 3-(4-Oxo-8-(3-(2-oxo-2,3-dihydro-1H-benzo[d]imidazol-1-yl)propyl)-1-phenyl-1,3,8-triazaspiro[4.5]decan-3-yl)-3-phenylpropanoic acid], below 10 nM; under `CS(=O)(=O)Nc1cccc(N2CN(c3ccccc3)C3(CCN(CCCC(=O)c4ccc(F)cc4)CC3)C2=O)c1` [Compound 211], below 10 nM.
On to `O=C(O)CCCC(c1ccccc1)N1CN(c2ccccc2)C2(CCN(CCCn3c(=O)[nH]c4ccccc43)CC2)C1=O` (centres unmarked) [Compound 69, 5-(4-Oxo-8-(3-(2-oxo-2,3-dihydro-1H-benzo[d]imidazol-1-yl)propyl)-1-phenyl-1,3,8-triazaspiro[4.5]decan-3-yl)-5-phenylpentanoic acid], for which the IC50 was below 10 nM.
On to `O=C(O)c1cccc(CN2CN(c3ccccc3)C3(CCN(CC4COc5ccccc5O4)CC3)C2=O)c1` (centres unmarked) [Compound 76, 3-((8-((2,3-Dihydrobenzo[b][1,4]dioxin-2-yl)methyl)-4-oxo-1-phenyl-1,3,8-triazaspiro[4.5]decan-3-yl)methyl)benzoic acid], for which the IC50 is below 10 nM.
Regarding `O=C(O)c1ccccc1CN1CN(c2ccc(F)cc2)C2(CCN(CCCN3C(=O)Cc4ccccc43)CC2)C1=O` [Compound 152, 2-((1-(4-Fluorophenyl)-4-oxo-8-(3-(2-oxoindolin-1-yl)propyl)-1,3,8-triazaspiro[4.5]decan-3-yl)methyl)benzoic acid], the half-inhibitory concentration (IC50) is below 10 nM.
Regarding `CC1(C)C(=O)N(CCCN2CCC3(CC2)C(=O)N(Cc2cccc(C(=O)O)c2)CN3c2ccc(F)cc2)c2ccccc21` [Compound 123, 3-((8-(3-(3,3-Dimethyl-2-oxoindolin-1-yl)propyl)-1-(4-fluorophenyl)-4-oxo-1,3,8-triazaspiro[4.5]decan-3-yl)methyl)benzoic acid], the IC50 is below 10 nM.
Under `O=C(O)c1cccc(CN2CN(c3ccccc3)C3(CCN(CCCN4C(=O)C5(CC5)c5ccccc54)CC3)C2=O)c1` [Compound 130, 3-((4-oxo-8-(3-(2′-oxospiro[cyclopropane-1,3′-indoline]-1′-yl)propyl)-1-phenyl-1,3,8-triazaspiro[4.5]decan-3-yl)methyl)benzoic acid, hydrochloride salt] stands below 10 nM.
The same measure for `COc1ccc(N2CN(Cc3cccc(C(=O)O)c3)C(=O)C23CCN(CCCn2c(=O)[nH]c4ccccc42)CC3)cc1` [Compound 56, 3-((1-(4-Methoxyphenyl)-4-oxo-8-(3-(2-oxo-2,3-dihydro-1H-benzo[d]imidazol-1-yl)propyl)-1,3,8-triazaspiro[4.5]decan-3-yl)methyl)benzoic acid]: below 10 nM.
For `CS(=O)(=O)Nc1ccc(N2CN(c3ccccc3)C3(CCN(CCCC(=O)c4ccc(F)cc4)CC3)C2=O)cc1` [Compound 214, N-(4-(8-(4-(4-Fluorophenyl)-4-oxobutyl)-4-oxo-1-phenyl-1,3,8-triazaspiro[4.5]decan-3-yl)phenyl)methanesulfonamide], the IC50 is below 10 nM.
